From ChEMBL document CHEMBL1130302, “1-Arylsulfonyl-3-(-hydroxybenzyl)-1H-pyrroles, a novel class of anti-HIV-1 reverse transcriptase inhibitors” (Bioorg Med Chem Lett, 1997)

Tests used:
[1] = tested on: Human immunodeficiency virus 1; test: Concentration required to achieve 50% protection of MT-4 cells against the cytopathic effect of HIV-1; format: functional, organism-based; settings: Human immunodeficiency virus 1, MT4
[2] = tested on: MT4; test: Concentration required to reduce the viability of mock-infected MT-4 cells by 50%; format: functional; settings: Homo sapiens
[3] = Selectivity index reported as ratio of CC50 to EC50; format: functional
[4] = target: Human immunodeficiency virus type 1 reverse transcriptase (Human immunodeficiency virus 1, UniProt Q72547); test: Inhibition of HIV-1 recombinant reverse transcriptase

SMILES | EC50 [1] | CC50 [2] | Ratio [3] | IC50 [4] | SI [3]
CC(=O)OC(c1ccn(S(=O)(=O)c2ccc(C)cc2)c1)c1ccc(Cl)cc1Cl (stereo not given) | 9.8 µM | 100 µM | 10 |  | 
O=C(c1ccn(S(=O)(=O)c2ccccc2)c1)c1ccc(Cl)cc1Cl | > 30 µM | 30 µM |  |  | 
COC(c1ccn(S(=O)(=O)c2ccc(C)cc2)c1)c1ccc(Cl)cc1Cl (stereo not given) | > 82 µM | 82 µM |  |  | 
O=S(=O)(c1ccccc1)n1ccc(C(O)c2ccccc2)c1 (stereo not given) | 8 µM | 124 µM | 15 |  | 
O=S(=O)(c1ccccc1)n1ccc(C(O)c2ccc(Cl)cc2)c1 (stereo not given) | 9 µM | 66 µM | 7 |  | 
CCc1ccc(S(=O)(=O)n2ccc(C(O)c3ccc(Cl)cc3Cl)c2)cc1 (stereo not given) | 1.5 µM | 71 µM | 47 | 22 µM | 
CCOC(=O)c1cc(C(O)c2ccc(Cl)cc2Cl)cn1S(=O)(=O)c1ccc(C)cc1 (stereo not given) | 14 µM | 36 µM | 2.6 |  | 
COc1ccc(C(O)c2ccn(S(=O)(=O)c3ccc(C)cc3)c2)cc1 (stereo not given) | 15.7 µM | > 200 µM | > 12 |  | 
O=S(=O)(c1ccccc1)n1ccc(C(O)c2ccccc2Cl)c1 (stereo not given) | 4.1 µM | 113 µM | 27.5 | 29.5 µM | 
O=S(=O)(c1ccccc1)n1ccc(C(O)c2c(F)cccc2F)c1 (stereo not given) | 48 µM | 100 µM | 2 |  | 
Nc1ccc(Cl)cc1S(=O)(=O)n1ccc(C(O)c2ccccc2)c1 (stereo not given) | 3.2 µM | 109 µM | 34 | > 30 µM | 
CC(O)c1ccn(S(=O)(=O)c2cc(Cl)ccc2N)c1 (stereo not given) | > 95 µM | 95 µM |  |  | 
Cc1ccc(C(c2ccn(S(=O)(=O)c3ccccc3)c2)n2ccnc2)cc1 (stereo not given) | > 26 µM | 26 µM |  |  | 
Cc1cn([C@H]2C[C@H](N=[N+]=[N-])[C@@H](CO)O2)c(=O)[nH]c1=O [ZIDOVUDINE] | 0.01 µM | > 20 µM |  |  | 
CCOC(=O)c1cc(C(O)c2ccc(Cl)cc2Cl)cn1S(=O)(=O)c1cc(Cl)ccc1N (stereo not given) | 16 µM | 29 µM | 1.8 |  | 
CC(C)(C)c1ccc(S(=O)(=O)n2ccc(C(O)c3ccc(Cl)cc3Cl)c2)cc1 (stereo not given) | 2.5 µM | 62 µM |  | 6.4 µM | 24
Cc1ccc(S(=O)(=O)n2cc(C(O)c3ccc(Cl)cc3Cl)cc2C(=O)OC(C)C)cc1 (stereo not given) | 22 µM | 32 µM | 1.4 |  | 
Cc1ccc(C(=O)c2ccn(S(=O)(=O)c3ccccc3)c2)cc1 | > 30 µM | 30 µM |  |  | 
CC(C)c1ccc(S(=O)(=O)n2ccc(C(O)c3ccc(Cl)cc3Cl)c2)cc1 (stereo not given) | 1.8 µM | 51 µM | 28 | 2.5 µM | 

SMILES | EC50 [1] | CC50 [2] | Ratio [3] | IC50 [4] | SI [3]
O=S(=O)(c1ccccc1)n1ccc(C(c2ccc(Cl)cc2Cl)n2ccnc2)c1 (stereo not given) | > 14 µM | 14 µM |  |  | 
O=S(=O)(c1ccccc1)n1ccc(C(O)c2ccccc2F)c1 (stereo not given) | 9.1 µM | > 200 µM | > 22 |  | 
Cc1ccc(S(=O)(=O)n2ccc(C(O)c3ccc(Cl)cc3Cl)c2)cc1 (stereo not given) | 0.3 µM | 61 µM | 203 | 18 µM | 
O=[N+]([O-])c1ccc(S(=O)(=O)n2ccc(C(O)c3ccc(Cl)cc3Cl)c2)cc1 (stereo not given) | 22 µM | 50 µM | 2.2 |  | 
O=S(=O)(c1ccccc1)n1ccc(C(c2ccc(Cl)cc2)n2ccnc2)c1 (stereo not given) | > 22 µM | 22 µM |  |  | 
Cc1ccnc2c1NC(=O)c1cccnc1N2C1CC1 [NEVIRAPINE] |  | > 200 µM |  |  | 
Cc1ccc(C(O)c2ccn(S(=O)(=O)c3ccc(C)cc3)c2)cc1 (stereo not given) | 7.3 µM | 96 µM | 13 | 4.7 µM | 
O=C(c1ccc(Cl)cc1)c1ccn(S(=O)(=O)c2ccccc2)c1 | > 26 µM | 26 µM |  |  | 
O=S(=O)(c1ccc(Cl)cc1)n1ccc(C(O)c2ccc(Cl)cc2Cl)c1 (stereo not given) | 4.4 µM | 96 µM | 21.8 | 17 µM | 
Nc1ccc(S(=O)(=O)n2ccc(C(O)c3ccc(Cl)cc3Cl)c2)cc1 (stereo not given) | 11 µM | 74 µM | 6.7 |  | 
Cc1ccc(S(=O)(=O)n2ccc(C(O)c3ccc(Cl)cc3Cl)c2)c(C)c1 (stereo not given) | 0.3 µM | 60 µM | 200 | < 1.1 µM | 
O=C(c1ccccc1)c1ccn(S(=O)(=O)c2ccccc2)c1 | > 32 µM | 32 µM |  |  | 
Cc1ccc(C(O)c2ccn(S(=O)(=O)c3ccccc3)c2)cc1 (stereo not given) | 15 µM | 122 µM | 8 |  | 
CCOC(=O)c1cc(C(O)c2ccc(Cl)cc2Cl)cn1S(=O)(=O)c1cc(Cl)ccc1[N+](=O)[O-] (stereo not given) | > 14 µM | 14 µM |  |  | 
CCOP(=O)(OCC)OP(=O)(OCC)OCC [ETHYL PYROPHOSPHATE] | 7 µM | 740 µM | 106 |  | 
O=S(=O)(c1ccccc1)n1ccc(C(c2ccccc2)n2ccnc2)c1 (stereo not given) | > 25 µM | 25 µM |  |  | 
CC(C)OC(=O)c1cc(C(O)c2ccc(Cl)cc2Cl)cn1S(=O)(=O)c1ccc(Cl)cc1 (stereo not given) | > 28 µM | 28 µM |  |  | 
O=S(=O)(c1ccccc1)n1ccc(C(O)c2ccc(Cl)cc2Cl)c1 (stereo not given) | 5 µM | 57 µM | 11 | > 30 µM | 
Cc1ccccc1S(=O)(=O)n1ccc(C(O)c2ccc(Cl)cc2Cl)c1 (stereo not given) | 1.7 µM | > 200 µM | > 117 | 27 µM | 
